For assay [1], the system named is C. albicans ATCC 90028 YLO12. The assay can be described thus: microbe, parasite or virus in culture. The following applies: Candida albicans, ATCC90028.
Assay [2] deals with C. krusei ATCC 6258 YLO6. The assay can be described thus: microbe, parasite or virus in culture. The following applies: Pichia kudriavzevii, ATCC6258.
The test system of assay [3] is C. parapsilosis ATCC 22019 YLO7. The assay can be described thus: microbe, parasite or virus in culture. The following applies: Lodderomyces parapsilosis, ATCC22019.
In assay [4] the test system is C. tropicalis HIV patient YHO50114. The assay can be described thus: organism not typed.
The subject of assay [5] is C. albicans HIV patient YHO50001. The assay can be described thus: organism not typed.
Assay [6] concerns C. tropicalis HIV patient YHO50007. The assay can be described thus: organism not typed.
Assay [7] has as its system C. tropicalis HIV patient YHO50013. The assay can be described thus: organism not typed.
The test system of assay [8] is C. albicans HIV patient YHO50072. The assay can be described thus: organism not typed.
The test system of assay [9] is C. krusei HIV patient YHO50075. The assay can be described thus: organism not typed.
Assay [10] deals with C. glabrata ATCC 9003 YLO8. The assay can be described thus: microbe, parasite or virus in culture. The following applies: Nakaseomyces glabratus, ATCC9003.
The subject of assay [11] is C. glabrata HIV patient YHO50105. The assay can be described thus: organism not typed.
The subject of assay [12] is C. albicans HIV patient YHO50005. The assay can be described thus: organism not typed.
In assay [13] the test system is C. dubliniensis HIV patient YHO50092. The assay can be described thus: organism not typed.
Assay [14] has as its system C. tropicalis ATCC 13803 YLO86. The assay can be described thus: microbe, parasite or virus in culture. The following applies: Candida tropicalis, ATCC13803.

In brackets after ≈: the same amount, converted by molar mass.

For the compound `OC(Cn1cncn1)(Cn1cncn1)c1ccc(F)cc1F` [Flu, fluconazole], the MIC was 1 µg/mL (≈ 3.27 µM) in assay [1]; 32 µg/mL (≈ 104 µM) in assay [2]; 8 µg/mL (≈ 26.1 µM) in assay [3]; above 64 µg/mL in assay [4]; 2 µg/mL (≈ 6.53 µM) in assay [5]; above 64 µg/mL in [6]. Also, the MIC was above 64 µg/mL in [7]; above 64 µg/mL in [8]; 64 µg/mL (≈ 209 µM) in assay [9]; 16 µg/mL (≈ 52.2 µM) in [10]; 16 µg/mL (≈ 52.2 µM) in [11]; 1 µg/mL (≈ 3.27 µM) in assay [12]. Besides, the figures for the MIC in assay [13] and in assay [14] were 0.5 µg/mL (≈ 1.63 µM) and above 64 µg/mL, respectively.

(Values after US9073967B2, “High salt-resistance antibacterial peptide and method for producing the same” (NATIONAL TSING HUA UNIVERSITY, priority 2011, dated 2015).)
